According to patent US20240139229A1, “TREATMENT FOR AORTOPATHY” (UNIVERSITY OF KENTUCKY RESEARCH FOUNDATION, priority 2021, published 2024):

System: BAPN-induced aortic aneurysm and dissection
Assay: Disulfiram in BAPN-induced aortopathy mouse model, survival
Type: in vivo
Details: male C57BL/6J mice, 3 weeks old, BAPN 0.5% wt/vol in drinking water for 28 days, disulfiram 10 mg/mL in sesame oil, daily I.P. 100 μL per 20 g body weight, day -1 to 27, compared to vehicle
Description: For the evaluation, an animal model of aortic aneurysm as described above was used to evaluate effects of disulfiram on aortic aneurysm/aortopathy. The model comprised administration of BAPN, i.e., BAPN-induced aortopathy in a mouse model. Specifics of induction of hypercholesteremia and administration of BAPN were substantially as described supra. Male C57BL/6J mice at 3 weeks old were administered beta-aminopropionitrile (BAPN, 0.5% wt/vol) in drinking water for 28 days to induce aortic aneurysm and dissection.
The mice were separated randomly into two groups: control and treatment. For the control group, sesame oil was administered daily via intraperitoneal (I.P.) injection at 100 μL per 20 g body weight from day −1 to 27 (day −1 is the day before the first day of BAPN administration). Simultaneously, for treatment group, disulfiram at 10 mg/mL in sesame oil was administered daily via I.P. injection at 100 μL per 20 g body weight. Animal survival was monitored for 28 days during BAPN administration.

`CCN(CC)C(=S)SSC(=S)N(CC)CC` [disulfiram, tetraethyldisulfanedicarbothioamide] was tested, and the Animal survival was “statistically significant increases in days of survival” and the Animal survival (listed as Disulfiram) was “protects against death from aortopathy”.
